Like-named read-outs stand apart in the source and are kept apart here. Blank lines part the entries; values can stand above or below the compound they belong to.
Key:
GLP-1R [1] = biological target: T1, GLP-1R (Homo sapiens, UniProt P43220); conditions: for Modulation of GLP-1-elicited cAMP accumulation / GLP-1 potency (in words): GLP-1R expressing CHO-K1 cells
Procedure: (§1) cAMP accumulation was measured using the LANCE Ultra cAMP kit (PerkinElmer, Boston, MA, USA) according to the manufacturer’s instructions. […] Cells were then resuspended with assay buffer (DMEM, 0.1% BSA, 5 mM HEPES) and seeded onto 384-well plates (6 × 10^5/mL, 5 μL/well). […] After the addition of 5 μL of Eu-cAMP tracer and ULight-anti-cAMP, the reactions were stopped. The plates were left for 1 h at room temperature to measure time-resolved FRET signals at excitation wavelengths of 620 nm and 665 nm by EnVision (PerkinElmer, Waltham, MA, USA).

GLP-1R [2] = biological target: T1, GLP-1R; conditions: for Effect on binding of GLP-1 to GLP-1R (in words): radiolabeled GLP-1, WT GLP-1R
Procedure: (§2) For homogeneous binding, cells were washed twice and incubated with a blocking buffer (F12 supplemented with 33 mM HEPES, and 0.1% (w/v) BSA, pH 7.4) for 2 h at 37 °C. […] Cells were washed three times with ice-cold PBS and lysed using 50 μL of lysis buffer (PBS supplemented with 20 mM Tris–HCl and 1% Triton X-100, pH 7.4). Subsequently, the plates were counted for radioactivity (counts per minute, CPM) in a scintillation counter (MicroBeta^2 Plate Counter, PerkinElmer, Waltham, MA, USA) using a scintillation cocktail (OptiPhaseSuperMix; PerkinElmer, Waltham, MA, USA).

GLP-1R [3] = biological target: T1, GLP-1R; experiment: cell-based
Procedure: as §2

GLP-1R [4] = biological target: T1, GLP-1R; experiment: cell-based; remark: listed apart in the source
Procedure: as §1

GLP-1R C347F mutant [5] = biological target: T2, GLP-1R C347F mutant (Homo sapiens, UniProt P43220, C347F); experiment: Whole cell binding assay, competition with radiolabeled GLP-1 at mutant GLP-1R
T2 construct: expressed in transfected cells
Procedure: as §2

GLP-1R C347F mutant [6] = biological target: T2, GLP-1R C347F mutant; conditions: cited from earlier work
[7] = Table 3, PAMs from LBVS, relative to maximal response of GLP-1 at WT receptor
[8] = Table 3, PAMs, competition with 125I-GLP-1 (40 pM), whole cells
[9] = Table 4, analogues of new PAMs, competition with 125I-GLP-1
[10] = Table 1, NAMs from SBVS, relative to maximal response of GLP-1 at WT receptor
[11] = Table 1, NAMs, competition with 125I-GLP-1 (40 pM), whole cells

T1 sequence (P43220 24-463): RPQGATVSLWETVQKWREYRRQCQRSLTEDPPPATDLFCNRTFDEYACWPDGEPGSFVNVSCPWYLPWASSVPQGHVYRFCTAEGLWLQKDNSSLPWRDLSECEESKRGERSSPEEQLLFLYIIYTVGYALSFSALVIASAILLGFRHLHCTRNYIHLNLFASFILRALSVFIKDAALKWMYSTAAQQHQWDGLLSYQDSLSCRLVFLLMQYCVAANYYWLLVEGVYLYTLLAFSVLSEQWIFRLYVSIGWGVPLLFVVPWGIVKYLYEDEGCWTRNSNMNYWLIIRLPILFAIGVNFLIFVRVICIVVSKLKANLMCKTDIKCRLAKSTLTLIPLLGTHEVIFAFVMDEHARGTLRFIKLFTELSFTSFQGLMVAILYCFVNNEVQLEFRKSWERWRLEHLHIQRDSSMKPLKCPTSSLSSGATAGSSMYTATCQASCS
T2 sequence (P43220 24-463 C347F): as the sequence (P43220 24-463) above, with C324F counted along it

SMILES: O=C(Cn1c(COc2ccccc2)nc2ccccc21)Nc1ccc(Cc2nnn[nH]2)cc1 [C10]
cAMP Accumulation Emax (% WT) (GLP-1R [1]; [7]): 92.93 ± 4.4 % WT
Binding Span ± SEM (GLP-1R [2]; [8]): 76.17 ± 16.21

Modulation of GLP-1-elicited cAMP accumulation / GLP-1 potency (in words) (GLP-1R [1]): positively modulated GLP-1 potency
Binding Span ± SEM (GLP-1R [2]; [8]): −46.37 ± 5.83
IC50 (GLP-1R [3]): 8.91 µM
SMILES: CN(CC(=O)N1CCC(C(=O)O)CC1)C(=O)c1cccn1CCc1ccccc1 [C11]

SMILES: CCOc1ccc(S(=O)(=O)Nc2ccccc2C(=O)OCC(=O)Nc2cc(C)on2)cc1 [C13]
cAMP Accumulation Emax (% WT) (GLP-1R [1]; [7]): 76.6 ± 6.24 % WT

SMILES: COc1ccccc1NS(=O)(=O)c1cc(NC(=O)c2ccc(=O)n(C)n2)ccc1N1CCCC1 [C22]
cAMP Accumulation Emax (% WT) (GLP-1R [1]; [7]): 96.9 ± 4.56 % WT
Binding Span ± SEM (GLP-1R [2]; [8]): −135.7 ± 8.4

Modulation of GLP-1-elicited cAMP accumulation / GLP-1 potency (in words) (GLP-1R [1]): positively modulated GLP-1 potency
cAMP Accumulation Emax (% WT) (GLP-1R [1]; [7]): 98.5 ± 3.6 % WT
Binding Span ± SEM (GLP-1R [2]; [8]): N.B. ^d
Binding pIC50 ± SEM (GLP-1R [2]; [8]): N.B. ^d
EC50 (GLP-1R [4]): 15.8 µM
SMILES: Cc1ccc(-c2nn(-c3ccccc3)cc2C(=O)Nc2cccc(-n3cnnn3)c2)o1 [C23]

SMILES: COc1ccc(NC(=O)c2n[nH]c3ccc([N+](=O)[O-])cc23)cc1NS(=O)(=O)c1ccc(F)cc1 [C26]
cAMP Accumulation Emax (% WT) (GLP-1R [1]; [7]): 89.4 ± 3.72 % WT
Binding Span ± SEM (GLP-1R [2]; [8]): −82.09 ± 13.44

SMILES: O=C(CSc1nnc[nH]1)Nc1sc2c(c1C(=O)NCc1ccccc1)CCCC2 [C31]
cAMP Accumulation Emax (% WT) (GLP-1R [1]; [7]): 91.0 ± 0.95 % WT
Binding Span ± SEM (GLP-1R [2]; [8]): −102.5 ± 6.85

cAMP Accumulation Emax (% WT) (GLP-1R [1]; Table 4, analogues of new PAMs): 114.9 ± 8.6 % WT
Binding Span ± SEM (GLP-1R [2]; [9]): 51.92 ± 9.60
IC50 (GLP-1R [3]): 4.07 µM
SMILES: Cc1ccc(NS(=O)(=O)c2ccc(NC(=O)c3n[nH]c4c3COc3ccccc3-4)cc2)cc1 [CD1652-A009]

cAMP Accumulation Emax (% WT) (GLP-1R [1]; Table 4, analogues of new PAMs): 92.2 ± 3.9 % WT
Binding Span ± SEM (GLP-1R [2]; [9]): N.B. ^c
Binding pIC50 ± SEM (GLP-1R [2]; [9]): N.B. ^c
EC50 (GLP-1R [4]): 15.8 µM
SMILES: CCC(C)N(CC(=O)N(Cc1cccn1Cc1ccccc1)C1CCCCC1)C(=O)C1CCC1 (stereo not drawn) [CD3532-B002]

cAMP Accumulation Emax (% WT) (GLP-1R [1]; Table 4, analogues of new PAMs): 78.2 ± 13.6 % WT
Binding Span ± SEM (GLP-1R [2]; [9]): 35.25 ± 11.50
SMILES: CCCCN(CC(=O)N(Cc1cccn1Cc1ccccc1)C1CC1)C(=O)C1CCCC1 [CD3559-D005]

cAMP Accumulation Emax (% WT) (GLP-1R [1]; Table 4, analogues of new PAMs): 126.1 ± 4.2 % WT
Binding Span ± SEM (GLP-1R [2]; [9]): 59.69 ± 15.13
Effect on binding of GLP-1 to GLP-1R (in words) (GLP-1R [2]): weakened the ligand binding
SMILES: COc1ccc(S(=O)(=O)Nc2cccc(C(=O)Nc3cc(C)on3)c2)cc1 [JK1719-D011]

Modulation of GLP-1-elicited cAMP accumulation / GLP-1 potency (in words) (GLP-1R [1]): negatively modulated
cAMP Accumulation Emax (% WT) (GLP-1R [1]; [10]): 97.02 ± 0.81 % WT
Binding Span ± SEM (GLP-1R [2]; [11]): 75.3 ± 12.57
Effect on binding of GLP-1 to GLP-1R (in words) (GLP-1R [2]): decreased the binding of GLP-1 to GLP-1R
SMILES: O=C(O)c1cccc(NN=Cc2cn(-c3ccccc3)nc2-c2cc3ccccc3o2)c1 [Z21]

Binding at C347F mutant (in words) (GLP-1R C347F mutant [5]): enhanced the ligand binding
Modulation of GLP-1-elicited cAMP accumulation / GLP-1 potency (in words) (GLP-1R [1]): negatively modulated
cAMP Accumulation Emax (% WT) (GLP-1R [1]; [10]): 99.72 ± 0.80 % WT
Binding Span ± SEM (GLP-1R [2]; [11]): N.B. ^d
Binding pIC50 ± SEM (GLP-1R [2]; [11]): N.B. ^d
SMILES: O=C(Nc1ccc(Cl)cc1)Nc1snnc1C(=O)Nc1ccc(C(=O)O)cc1 [Z42]

SMILES: CC(C)(C)Nc1nc2cc(Cl)c(Cl)cc2nc1S(C)(=O)=O [compound 2, 6,7-dichloro-3-methanesulfonyl-2-tert-butylamino-quinoxaline]
Binding at C347F mutant (in words) (GLP-1R C347F mutant [6]): abolishment
